Converted amounts (≈) assume the structure as drawn.
How the values were obtained:
Assay in all cases: Minimum inhibitory concentration (MIC), Heart Infusion agar
Format in all cases: cell-based
Ser. marcescens W-35 = conditions: Serratia marcescens, W35, 20 h, Ser. marcescens W-35; 10^6 cells/ml; 20 hours, 37° C. (Table 1); read-out: minimum inhibitory concentration (MIC)
Experimental: (§1) Antibacterial activities of the representative compounds (Ib) of the 7α-methoxycephalosporins according to this invention are shown in Table 1. [drawing 20]
The figures given in Table 1 represent the minimum inhibitory concentration (MIC in mcg/ml) of each compound, which was determined according to the method described in "Chemotherapy (Society of Chemotherapy, Japan), Vol. 16, 98-99 (1968)": A culture obtained by cultivating the test bacterium in a Heart Infusion broth (Eiken Kagaku Co.) was inoculated into a Heart Infusion agar medium (Eiken Kagaku Co.). After 20 hours of the incubation at 37° C., the growth of the bacterium was inspected to determine the minimum inhibitory concentration (MIC in mcg/ml). […]
(§2) (1) Minimum inhibitory concentration (MIC in mcg/ml).

[1] = system: C. freundii GN-346 (Cephalosporinase-producing bacterium); conditions: Citrobacter freundii, GN346; C. freundii GN-346; 10^6 cells/ml; 20 hours, 37° C.; read-out: minimum inhibitory concentration (MIC)
Experimental: as §1
(§3) The figures given in Table 1 represent the minimum inhibitory concentration (MIC in mcg/ml) of each compound, which was determined according to the method described in "Chemotherapy (Society of Chemotherapy, Japan), Vol. 16, 98-99 (1968)": A culture obtained by cultivating the test bacterium in a Heart Infusion broth (Eiken Kagaku Co.) was inoculated into a Heart Infusion agar medium (Eiken Kagaku Co.). After 20 hours of the incubation at 37° C., the growth of the bacterium was inspected to determine the minimum inhibitory concentration (MIC in mcg/ml). The inoculation rate of the bacterium was 10^4 cells/plate (10^6 cells/ml).
as §2

Ser. marcescens IID620 = conditions: Serratia marcescens; Ser. marcescens IID620; 10^6 cells/ml; 20 hours, 37° C.; read-out: minimum inhibitory concentration (MIC)
Experimental: as §1, §3, §2

Ser. marcescens W-8 = conditions: Serratia marcescens, W8; Ser. marcescens W-8; 10^6 cells/ml; 20 hours, 37° C.; read-out: minimum inhibitory concentration (MIC)
Experimental: as §1, §3, §2

K. pneumoniae Y-50 = conditions: Klebsiella pneumoniae, Y50; K. pneumoniae Y-50; 10^6 cells/ml; 20 hours, 37° C.; read-out: minimum inhibitory concentration (MIC)
Experimental: as §1, §3, §2

Ps. aeruginosa S-68 = conditions: Pseudomonas aeruginosa, S68; Ps. aeruginosa S-68; 10^6 cells/ml; 20 hours, 37° C.; read-out: minimum inhibitory concentration (MIC)
Experimental: as §1, §3, §2

Ps. aeruginosa IFO-3445 = conditions: Pseudomonas aeruginosa, IFO3445; Ps. aeruginosa IFO-3445; 10^6 cells/ml; 20 hours, 37° C.; read-out: minimum inhibitory concentration (MIC)
Experimental: as §1, §3, §2

Prot. vulgaris GN-76 = conditions: Proteus vulgaris, GN76; Prot. vulgaris GN-76; 10^6 cells/ml; 20 hours, 37° C.; read-out: minimum inhibitory concentration (MIC)
Experimental: as §1, §3, §2

Klebsiella spp. Y-72 = conditions: SPP.Y72; Klebsiella spp. Y-72; 10^6 cells/ml; 20 hours, 37° C.; read-out: minimum inhibitory concentration (MIC)
Experimental: as §1, §3, §2

[2] = system: S. aureus F-19 (Penicillinase-producing bacterium); conditions: Staphylococcus aureus; S. aureus F-19; 10^6 cells/ml; 20 hours, 37° C.; read-out: minimum inhibitory concentration (MIC)
Experimental: as §1, §3, §2

[3] = system: Acinetobacter caloaceticus A-6; conditions: A6; Acinetobacter caloaceticus A-6; 10^6 cells/ml; 20 hours, 37° C.; read-out: minimum inhibitory concentration (MIC)
Experimental: as §1, §3, §2

Ent. cloacae IID977 = conditions: Enterobacter cloacae; Ent. cloacae IID977; 10^6 cells/ml; 20 hours, 37° C.; read-out: minimum inhibitory concentration (MIC)
Experimental: as §1, §3, §2

E. coli NIHJ = conditions: Escherichia coli; E. coli NIHJ; 10^6 cells/ml; 20 hours, 37° C.; read-out: minimum inhibitory concentration (MIC)
Experimental: as §1, §3, §2

Citrobacter N-7 = conditions: N7; Citrobacter N-7; 10^6 cells/ml; 20 hours, 37° C.; read-out: minimum inhibitory concentration (MIC)
Experimental: as §1, §3, §2

SMILES | MIC (Ser. marcescens W-35) | MIC [1] | MIC (Ser. marcescens IID620) | MIC (Ser. marcescens W-8) | MIC (K. pneumoniae Y-50) | MIC (Ps. aeruginosa S-68) | MIC (Ps. aeruginosa IFO-3445) | MIC (Prot. vulgaris GN-76) | MIC (Klebsiella spp. Y-72) | MIC [2] | MIC [3] | MIC (Ent. cloacae IID977) | MIC (E. coli NIHJ) | MIC (Citrobacter N-7)
CCN1CCN(C(=O)NC(C(=O)N[C@]2(OC)C(=O)N3C(C(=O)O)=C(CSc4nnnn4C)CS[C@@H]32)c2ccco2)C(=O)C1=O (some centres unmarked) | 12.5 µg/mL (≈ 19.2 µM) | 25 µg/mL (≈ 38.5 µM) | ≤ 0.1 µg/mL | 100 µg/mL (≈ 154 µM) | 0.2 µg/mL (≈ 0.308 µM) | 25 µg/mL (≈ 38.5 µM) | 12.5 µg/mL (≈ 19.2 µM) | 0.78 µg/mL (≈ 1.2 µM) | 6.25 µg/mL (≈ 9.62 µM) | 6.25 µg/mL (≈ 9.62 µM) | 12.5 µg/mL (≈ 19.2 µM) | 25 µg/mL (≈ 38.5 µM) | ≤ 0.1 µg/mL | 
CCN1CCN(C(=O)NC(C(=O)N[C@]2(OC)C(=O)N3C(C(=O)O)=C(CSc4nnnn4CCN(C)C)CS[C@@H]32)c2cccs2)C(=O)C1=O (some centres unmarked) | 50 µg/mL (≈ 69.2 µM) | 25 µg/mL (≈ 34.6 µM) | 0.39 µg/mL (≈ 0.54 µM) | 50 µg/mL (≈ 69.2 µM) | 0.78 µg/mL (≈ 1.08 µM) | 25 µg/mL (≈ 34.6 µM) | 50 µg/mL (≈ 69.2 µM) | 1.56 µg/mL (≈ 2.16 µM) | 12.5 µg/mL (≈ 17.3 µM) | 6.25 µg/mL (≈ 8.65 µM) | 12.5 µg/mL (≈ 17.3 µM) | 25 µg/mL (≈ 34.6 µM) | ≤ 0.1 µg/mL | 6.25 µg/mL (≈ 8.65 µM)
CCN1CCN(C(=O)NC(C(=O)N[C@]2(OC)C(=O)N3C(C(=O)O)=C(CSc4nnnn4C)CS[C@@H]32)c2csc(N)n2)C(=O)C1=O (some centres unmarked) |  | 50 µg/mL (≈ 73.3 µM) | ≤ 0.1 µg/mL | 100 µg/mL (≈ 147 µM) | 0.2 µg/mL (≈ 0.293 µM) | 25 µg/mL (≈ 36.7 µM) | 12.5 µg/mL (≈ 18.3 µM) | 0.78 µg/mL (≈ 1.14 µM) | 1.56 µg/mL (≈ 2.29 µM) | 3.13 µg/mL (≈ 4.59 µM) | 25 µg/mL (≈ 36.7 µM) | 25 µg/mL (≈ 36.7 µM) | ≤ 0.1 µg/mL | 1.56 µg/mL (≈ 2.29 µM)
CCN1CCN(C(=O)NC(C(=O)N[C@]2(OC)C(=O)N3C(C(=O)O)=C(CSc4nnnn4CCO)CS[C@@H]32)c2ccco2)C(=O)C1=O (some centres unmarked) |  |  | ≤ 0.1 µg/mL |  | 0.2 µg/mL (≈ 0.294 µM) |  | 12.5 µg/mL (≈ 18.4 µM) | 1.56 µg/mL (≈ 2.3 µM) |  | 6.25 µg/mL (≈ 9.2 µM) |  | 25 µg/mL (≈ 36.8 µM) | ≤ 0.1 µg/mL | 
CCN1CCN(C(=O)NC(C(=O)N[C@]2(OC)C(=O)N3C(C(=O)O)=C(CSc4nnnn4CC(N)=O)CS[C@@H]32)c2cccs2)C(=O)C1=O (some centres unmarked) | 12.5 µg/mL (≈ 17.6 µM) |  | 0.2 µg/mL (≈ 0.282 µM) | 25 µg/mL (≈ 35.3 µM) | 0.39 µg/mL (≈ 0.55 µM) | 12.5 µg/mL (≈ 17.6 µM) | 12.5 µg/mL (≈ 17.6 µM) | 0.78 µg/mL (≈ 1.1 µM) | 1.56 µg/mL (≈ 2.2 µM) | 3.13 µg/mL (≈ 4.42 µM) | 6.25 µg/mL (≈ 8.82 µM) | 12.5 µg/mL (≈ 17.6 µM) | ≤ 0.1 µg/mL | 3.13 µg/mL (≈ 4.42 µM)
CCN1CCN(C(=O)NC(C(=O)N[C@]2(OC)C(=O)N3C(C(=O)O)=C(CSc4nnc(C)s4)CS[C@@H]32)c2csc(N)n2)C(=O)C1=O (some centres unmarked) |  |  | 0.39 µg/mL (≈ 0.559 µM) |  |  |  | 25 µg/mL (≈ 35.8 µM) | 3.13 µg/mL (≈ 4.49 µM) |  | 6.25 µg/mL (≈ 8.96 µM) | 25 µg/mL (≈ 35.8 µM) |  | ≤ 0.1 µg/mL | 
CCN1CCN(C(=O)NC(C(=O)N[C@]2(OC)C(=O)N3C(C(=O)O)=C(CSc4nnn(CCN(C)C)n4)CS[C@@H]32)c2cccs2)C(=O)C1=O (some centres unmarked) |  | 25 µg/mL (≈ 34.6 µM) | 0.2 µg/mL (≈ 0.277 µM) | 50 µg/mL (≈ 69.2 µM) | 0.78 µg/mL (≈ 1.08 µM) |  | 50 µg/mL (≈ 69.2 µM) | 3.13 µg/mL (≈ 4.33 µM) |  | 6.25 µg/mL (≈ 8.65 µM) | 25 µg/mL (≈ 34.6 µM) | 25 µg/mL (≈ 34.6 µM) | ≤ 0.1 µg/mL | 3.13 µg/mL (≈ 4.33 µM)
CCN1CCN(C(=O)NC(C(=O)N[C@]2(OC)C(=O)N3C(C(=O)O)=C(COC(C)=O)CS[C@@H]32)c2csc(N)n2)C(=O)C1=O (some centres unmarked) [OCOCH3] |  |  | 0.39 µg/mL (≈ 0.623 µM) |  |  |  | 25 µg/mL (≈ 40 µM) | 3.13 µg/mL (≈ 5 µM) |  | 6.25 µg/mL (≈ 9.99 µM) | 25 µg/mL (≈ 40 µM) |  | ≤ 0.1 µg/mL | 
CCN1CCN(C(=O)NC(C(=O)N[C@]2(OC)C(=O)N3C(C(=O)O)=C(CSc4nnnn4CC(N)=O)CS[C@@H]32)c2csc(N)n2)C(=O)C1=O (some centres unmarked) |  |  | ≤ 0.1 µg/mL |  |  |  | 12.5 µg/mL (≈ 17.2 µM) | 1.56 µg/mL (≈ 2.15 µM) |  | 3.13 µg/mL (≈ 4.32 µM) | 12.5 µg/mL (≈ 17.2 µM) |  | ≤ 0.1 µg/mL | 

Reference: patent US4321265A, “7α-Methoxycephalosporins” (Toyama Chemical Co., Ltd., priority 1977, dated 1982)
